Values joined by “and” are separate entries in the source; they are usually repeats but may differ in a detail not shown here. Equal values may be shown once.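 Values below derive from 48-hour exposures of cells grown in 96-well plates, with endpoints linearly interpolated between the two concentrations bracketing the appropriate inhibition level. GI50 is the concentration that inhibits growth by half. TGI denotes the concentration required for complete inhibition of growth.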
How the values were obtained:
Assay in all cases: growth of human tumour cells (NCI), 48 h
EKVX NSCLC = system: EKVX NSCLC
SF-539 CNS = system: SF-539 CNS
A498 renal = system: A498 renal
HCT-15 colon = system: HCT-15 colon
SF-268 CNS = system: SF-268 CNS
HL-60(TB) leukemia = system: HL-60(TB) leukemia
DU-145 prostate = system: DU-145 prostate
TK-10 renal = system: TK-10 renal
UACC-257 melanoma = system: UACC-257 melanoma
SK-MEL-2 melanoma = system: SK-MEL-2 melanoma

| Compound | TGI (EKVX NSCLC) | TGI (SF-539 CNS) | TGI (A498 renal) | TGI (HCT-15 colon) | TGI (SF-268 CNS) | TGI (HL-60(TB) leukemia) | GI50 (DU-145 prostate) | TGI (DU-145 prostate) | GI50 (EKVX NSCLC) | GI50 (SF-539 CNS) | TGI (TK-10 renal) | GI50 (A498 renal) | GI50 (HCT-15 colon) | GI50 (SF-268 CNS) | GI50 (UACC-257 melanoma) | TGI (UACC-257 melanoma) | GI50 (HL-60(TB) leukemia) | TGI (SK-MEL-2 melanoma) | GI50 (TK-10 renal) | GI50 (SK-MEL-2 melanoma) |
| --- | --- | --- | --- | --- | --- | --- | --- | --- | --- | --- | --- | --- | --- | --- | --- | --- | --- | --- | --- | --- |
| CN(C(=O)C12C3C4C1C1C2C3C41C(=O)N(C)C(C)(C)C)C(C)(C)C (stereo not given) | > 50 µM | > 50 µM | > 50 µM | > 50 µM | > 50 µM | > 50 µM | – | – | – | – | – | – | – | – | – | – | – | – | – | – |
| CC[C@@]1(O)C(=O)OCc2c1cc1n(c2=O)Cc2cc3c(Cl)c4c(cc3nc2-1)OCO4 | > 100 µM | 0.0924 µM | 0.309 µM and 1.19 µM | > 100 µM | 13.2 µM | 0.00518 µM and 0.0164 µM | < 0.001 µM | > 100 µM | 5.93 µM and 1.91 µM | < 0.001 µM | 10.6 µM | 0.00182 µM | 0.215 µM and 0.178 µM | 0.0216 µM | 0.156 µM and 0.312 µM | 3.64 µM and 1.92 µM | < 0.001 µM | – | – | – |
| CC1(C)C(=O)CCC(=O)C(C)(C)C2=CC=C(O2)C(C)(C)C(=O)CCC(=O)C(C)(C)C2=CC=C1O2 | > 100 µM | – | > 100 µM | > 100 µM | > 100 µM | > 100 µM | – | – | – | – | > 100 µM | – | – | – | – | > 100 µM | – | > 100 µM | – | – |
| Cc1ccc(-c2c3c(N)nc(-c4ccncc4)nc3nc3c2c(C)nn3-c2ccccc2)cc1 | – | 7.57 µM | > 37.5 µM | > 37.5 µM | > 37.5 µM | > 37.5 µM | 5.08 µM | 20.7 µM | – | 2.26 µM | 25.6 µM | 5.81 µM | 13.6 µM | 8.27 µM | 13.3 µM | > 37.5 µM | > 37.5 µM | > 37.5 µM | 9.5 µM | 13.7 µM |
| CC(C)(C)C1CCP(=O)(c2ccccc2)CC1 (stereo not given) | > 100 µM | > 100 µM | > 100 µM | > 100 µM | – | > 100 µM | – | – | – | – | > 100 µM | – | – | – | – | > 100 µM | – | > 100 µM | – | – |
| Cc1cc(C(=O)N2CCN(C)CC2)c2c(=O)n(-c3ccccc3)c(=O)n(CC(O)CN3CCN(c4ncccn4)CC3)c2n1 (stereo not given) | > 100 µM | > 100 µM | > 100 µM | > 100 µM | > 100 µM | > 100 µM | > 100 µM | > 100 µM | > 100 µM | > 100 µM | > 100 µM | > 100 µM | > 100 µM | > 100 µM | – | – | > 100 µM | > 100 µM | > 100 µM | > 100 µM |
| COc1cc(-c2ccccc2)c(OC)cc1CCl | > 100 µM | > 100 µM | > 100 µM | > 100 µM | > 100 µM | > 100 µM | – | – | – | – | > 100 µM | – | – | – | – | > 100 µM | – | > 100 µM | – | – |
| COc1cc(C2CC(=O)c3c(C)nn(-c4nc5ccccc5[nH]4)c3C2)cc(OC)c1OC (stereo not given) | – | – | > 100 µM | > 100 µM | > 100 µM | – | > 100 µM | > 100 µM | – | – | – | 7.06 µM | > 100 µM | 8.01 µM | > 100 µM | > 100 µM | – | – | – | – |
| CCOC(=O)C/C(N)=C(\C#N)C(=O)OCC | > 100 µM | > 100 µM | > 100 µM | > 100 µM | > 100 µM | > 100 µM | – | – | – | – | > 100 µM | – | – | – | – | – | – | > 100 µM | – | – |
| Cc1ccc(C)c(NC(=O)/C(=N\N)C(c2cnc3ccc([N+](=O)[O-])cc3n2)[N+](=O)[O-])c1 (stereo not given) | > 100 µM | > 100 µM | > 100 µM | > 100 µM | > 100 µM | > 100 µM | – | – | – | – | > 100 µM | – | – | – | – | > 100 µM | – | > 100 µM | – | – |
| NC(=O)c1ccccc1NC(=O)C(=O)Nc1n[nH]c(N)n1 | > 100 µM | > 100 µM | > 100 µM | > 100 µM | – | > 100 µM | – | – | – | – | > 100 µM | – | – | – | – | > 100 µM | – | > 100 µM | – | – |
| O=C(O)/C(=C/c1ccccc1[N+](=O)[O-])c1cccs1 | > 100 µM | > 100 µM | > 100 µM | > 100 µM | > 100 µM | > 100 µM | – | – | – | – | > 100 µM | – | – | – | – | > 100 µM | – | > 100 µM | – | – |
| Cc1ccn2c(-c3csc(Nc4cccc(O)c4)n3)c(C)nc2c1 | – | 3.75 µM | 32.1 µM | 24 µM | 42.6 µM | 22.1 µM | 0.787 µM | 25.3 µM | – | 0.498 µM | 24.9 µM | 0.926 µM | 0.273 µM | 0.785 µM | 3.48 µM | 19.6 µM | 0.343 µM | 20.4 µM | 4.88 µM | 0.72 µM |
| O=C(Cc1nc2ccc(C(=O)c3ccccc3)cc2[nH]c1=O)C(=O)Nc1ccc(C(F)(F)F)cc1[N+](=O)[O-] | > 100 µM | > 100 µM | > 100 µM | > 100 µM | > 100 µM | > 100 µM | – | – | – | – | > 100 µM | – | – | – | – | > 100 µM | – | > 100 µM | – | – |
| Cc1nn2c(=O)n(-c3cccc(-n4nnc5c(-c6ccccc6)c(C)nn5c4=O)c3C)nnc2c1-c1ccccc1 | > 100 µM | 64 µM | > 100 µM | 63.8 µM | > 100 µM | 87.9 µM | – | – | – | – | > 100 µM | – | – | – | – | 70.2 µM | – | 17.5 µM | – | – |
| Cc1cn(C2CC(N=[N+]=[N-])C(CO)O2)c(=O)[nH]c1=O (stereo not given) | > 1000 µM | – | – | > 1000 µM | – | > 1000 µM | – | > 1000 µM | > 1000 µM | – | > 1000 µM | – | > 1000 µM | – | > 1000 µM | > 1000 µM | – | > 1000 µM | – | > 1000 µM |
| Cc1no[n+]([O-])c1/C=N/NS(=O)(=O)c1ccccc1 | > 100 µM | > 100 µM | > 100 µM | > 100 µM | > 100 µM | > 100 µM | – | – | – | – | > 100 µM | – | – | – | – | – | – | > 100 µM | – | – |
| Cc1ccc(-n2nnc3c(sc4ccccc43)c2=O)cc1 | – | 30.6 µM | > 100 µM | > 100 µM | 71 µM | > 100 µM | 7.41 µM | > 100 µM | – | 5.23 µM | 50 µM | 30.9 µM | > 100 µM | 4.62 µM | > 100 µM | > 100 µM | > 100 µM | > 100 µM | 7.47 µM | 99 µM |
| CC(=O)n1cc(CC(C)O)c(=O)[nH]c1=O (stereo not given) | > 100 µM | > 100 µM | > 100 µM | > 100 µM | > 100 µM | > 100 µM | – | – | – | – | > 100 µM | – | – | – | – | > 100 µM | – | > 100 µM | – | – |

Source: PubChem BioAssay (NCI)
